Results published in patent US20190352297A1, “SELECTIVE AURORA A KINASE INHIBITORS” (UNIVERSITAT BERN, priority 2017, published 2019).
pIC50: −log10 of the molar value. “Also recorded” adds a separate entry of the source.

How the values were obtained:
[1] = test system: phospho-Histone H3 Ser10 (Aurora B); assay: Phospho-Histone H3 Ser10 in cells (Aurora B activity); assay type: cell-based, human
Protocol: HeLa Kyoto cells were cultured in high-glucose DMEM with GlutaMAX (Life Technologies) media supplemented with 10% fetal calf serum (FCS) in a humidified 5% CO2 incubator at 37° C. For plasmid transfections, cells were seeded at 80-90% confluence. 4 μg of plasmid DNA in 100 μl OptiMEM and 4 μl of Lipofectamine 2000 (Life Technologies) in 100 μl OptiMEM were incubated in parallel for 5 minutes, mixed for 20 minutes and added to each well. All Aurora A clones were constructed using full-length Aurora A as a template with appropriate PCR primer pairs. […] GFP-Aurora AR137A and GFP-Aurora AW277A were engineered using a site directed mutagenesis kit (Agilent Technologies, no. 210515) with appropriate primers. For determining the mitotic index and the chromosome misalignment phenotype, cells were incubated with various concentrations of compounds for 20 h before analysis. Cells were likewise treated with 0.25 μM MLN8237 (Selleckchem, no. S1133) or 5 μM ZM447439 (Selleckchem, no. S1103). For flow cytometry analysis, 50 nM […] and 2.5 μM ZM447439 were used. For rescue experiments, HeLa Kyoto cells were first transfected with GFP-Aurora A, GFP-Aurora AR137A or GFP-Aurora AW277A for 20 h, followed by incubation with 9 for another 20 h before cells were fixed with cold methanol and stained. To assess the impact of compound 9 on cell cycle progression, DNA content was analyzed after propidium iodide staining using FACS (BD Accuri C6 flow cytometer).
For immunofluorescence, cells were fixed in cold methanol, washed in PBT (PBS supplemented with 0.05% Tween-20) and stained with the following primary antibodies: 1:200 rabbit anti-pT288 (Cell Signaling, C39D8), 1:200 rabbit anti-pH3S10 (Cell Signaling, D2C8), 1:500 mouse anti-α-tubulin (Transduction Laboratories, 612709), 1:300 mouse anti-GFP (MAB3580, Millipore), 1:200 anti-TPX2 (Santa Cruz Biotechnology, sc-32863), anti-Aurora A (Invitrogen, 458900). Secondary antibodies were anti-mouse conjugated to Alexa488 or Alexa568, as well as anti-rabbit conjugated to Alexa488 or Alexa568, all used at 1:500 (Invitrogen). Confocal images were acquired on a Zeiss LSM 710 confocal microscope equipped with a Axiocam MRm (B/VVW) CCD camera using a 63×NA 1.0 oil objective and processed in ImageJ and Adobe Photoshop, maintaining relative image intensities within a series.

Aurora A / TPX2 (1-43) = molecular target: T1, Aurora A / TPX2 (1-43) (Homo sapiens, UniProt O14965); assay: Microscale thermophoresis, Aurora A binding to labeled TPX2 1-43; settings: excess 9, three independent measurements
T1 construct: human Aurora A kinase domain (residues 122-403 in the pET24-d vector); His-tag (cleaved yes); made in house; host or cells: E. coli BL21 (DE3) Rosetta (Aurora A); E. coli Bl21 (DE3) (TPX2)
T1 sequence (O14965 122-403): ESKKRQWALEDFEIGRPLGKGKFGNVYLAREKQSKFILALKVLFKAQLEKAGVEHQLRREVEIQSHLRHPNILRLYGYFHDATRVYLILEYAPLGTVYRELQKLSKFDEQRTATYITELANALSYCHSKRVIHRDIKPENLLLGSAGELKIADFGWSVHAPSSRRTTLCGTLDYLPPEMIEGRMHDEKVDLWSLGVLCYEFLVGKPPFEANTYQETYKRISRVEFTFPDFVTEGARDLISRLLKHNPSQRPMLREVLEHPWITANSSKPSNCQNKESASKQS
Protocol: TPX2 was labelled using the Monolith NT.115 protein labelling kit RED (NanoTemper Technologies). The labelling was performed according to the manufacturer's instructions in the supplied labelling buffer applying a concentration of 44 μM peptide at room temperature for 30 min. Labelled TPX2 was adjusted to 400 nM with final buffer and 0.05% Tween-20 (NanoTemper Technologies). Aurora A kinase with or without ligand was dissolved in final buffer supplemented with 0.05% Tween-20, and a series of 12 dilutions (1:1) was prepared in the identical buffer, keeping the DMSO/ligand concentration constant (final concentrations 0.5% and 125 μM, respectively). Final protein concentrations were between 4.4 nM and 150 μM. […] Thermophoresis was measured at room temperature with 5 s/30 s/5 s laser off/on/off times. […] Data of three independent measurements were analyzed (NT.Analysis software, version 1.5.41, NanoTemper Technologies) using the thermophoresis signal after 10 sec. Points measured above 4.7 μM Aurora A were rejected.

Aurora A (Trp277) = molecular target: T2, Aurora A (Trp277) (Homo sapiens, UniProt O14965); assay: Intrinsic tryptophan fluorescence; assay type: binding
T2 construct: human Aurora A kinase domain (residues 122-403 in the pET24-d vector); His-tag (cleaved yes); made in house; host or cells: E. coli BL21 (DE3) Rosetta
T2 sequence (O14965 122-403): T1 sequence (O14965 122-403)
Protocol: Binding experiments were performed by mixing Aurora A (500 nM, 375 nM, and 150 nM for 77, 9, and 88, respectively) with varying concentrations (0-100 μM) of the different compounds in buffer (final DMSO concentration 1%), followed by incubation for 15 min at room temperature. Tryptophan fluorescence spectra were recorded at room temperature using an Infinite M1000 Pro plate reader (Tecan) and Corning 96 well half area, flat bottom, non-binding surface, black polystyrene plates. Excitation occurred at 284 nm (bandwidth ±5 nm) and emission at 340 nm (bandwidth ±10 nm). The gain was calculated from the well with the highest protein concentration. Each measurement was done in triplicate.

For CCc1ccc(N=C2SC(=Cc3ccnc(Nc4ccc(C(=O)O)cn4)c3)C(=O)N2C)cc1 [Compound 9], the “effect on Aurora B activity in cells” value [1] was “no effect; also recorded: without impairing Aurora B function”, the pIC50 ([1]; Aurora B/INCENP, cells, read-out: cellular IC50 (pH3)) was under 4.60 and the “distribution of phospho-Histone H3 Ser10” value ([1]; treated cells) was “remained unchanged”. For the same compound, the “binding of Aurora to labeled TPX2 1-43 in the presence of inhibitor” value (Aurora A / TPX2 (1-43)) was “abolished” and the “tryptophan fluorescence, environment of Trp277” value (Aurora A (Trp277)) was “perturbed the environment of Trp277”.
